Paper PMC12022909, “A Multicomponent Reaction-Based Platform Opens New Avenues in Aryl Hydrocarbon Receptor Modulation” (ACS Central Science, 2025)

Target: T1, AhR-GFP (Homo sapiens, UniProt P35869)
T1 construct: host or cells: MCF7, lentiviral transduction
Test: MCF7 AhR-GFP.IRES.mCherry reporter, flow cytometry quantification of AhR protein levels
Assay type: cell-based
Conditions: 5 μM, 5 h
Description: Figure 6 Bifunctional AhR probes and AhR reporter in MCF7 cells. (a) Synthetic access to the conjugatable AhR ligand 5m. (b) Structure, yield, and EC50 value of the model amide 12a and MD simulation of AhR with 12a (last snapshot). (c) PROTAC-like compound 12b and dual probes 12c–d. Reaction conditions: (a) 5m (1 equiv), amine (1 equiv), HATU, DIPEA, DMF, rt, 24 h, Ar atm; (b) 5m (2 equiv), diamine (1 equiv), HATU, DIPEA, DMF, rt, 24 h, Ar atm. (d) General setup of the reporter system for quantifying AhR protein levels. (e) The population of MCF7 reporter cells (MCF7 AhR-GFP.IRES.mCherry) gated by flow cytometry and used for quantification of AhR. […] Values represent the ratio of the geometric mean of GFP and mCherry values in the gated population. (g) Change in protein levels relative to vehicle treatment (DMSO) in MCF7 cells treated with 12b at 10 μM for 5 h quantified by TMT labeling and LC/MS analysis versus p-Value. TEXT PRINTED IN THE PICTURE: (b) 12a: EC50 = 0.40 μM […]
To test the effect of these compounds on AhR abundance, we established a cellular reporter in the breast cancer cell line MCF7. AhR in this case is fused to GFP bearing an independently translated mCherry on the same transcript to allow correction for general transcriptional interference of treatments (Figure 6d,e). […]

T1 sequence (P35869 11-848): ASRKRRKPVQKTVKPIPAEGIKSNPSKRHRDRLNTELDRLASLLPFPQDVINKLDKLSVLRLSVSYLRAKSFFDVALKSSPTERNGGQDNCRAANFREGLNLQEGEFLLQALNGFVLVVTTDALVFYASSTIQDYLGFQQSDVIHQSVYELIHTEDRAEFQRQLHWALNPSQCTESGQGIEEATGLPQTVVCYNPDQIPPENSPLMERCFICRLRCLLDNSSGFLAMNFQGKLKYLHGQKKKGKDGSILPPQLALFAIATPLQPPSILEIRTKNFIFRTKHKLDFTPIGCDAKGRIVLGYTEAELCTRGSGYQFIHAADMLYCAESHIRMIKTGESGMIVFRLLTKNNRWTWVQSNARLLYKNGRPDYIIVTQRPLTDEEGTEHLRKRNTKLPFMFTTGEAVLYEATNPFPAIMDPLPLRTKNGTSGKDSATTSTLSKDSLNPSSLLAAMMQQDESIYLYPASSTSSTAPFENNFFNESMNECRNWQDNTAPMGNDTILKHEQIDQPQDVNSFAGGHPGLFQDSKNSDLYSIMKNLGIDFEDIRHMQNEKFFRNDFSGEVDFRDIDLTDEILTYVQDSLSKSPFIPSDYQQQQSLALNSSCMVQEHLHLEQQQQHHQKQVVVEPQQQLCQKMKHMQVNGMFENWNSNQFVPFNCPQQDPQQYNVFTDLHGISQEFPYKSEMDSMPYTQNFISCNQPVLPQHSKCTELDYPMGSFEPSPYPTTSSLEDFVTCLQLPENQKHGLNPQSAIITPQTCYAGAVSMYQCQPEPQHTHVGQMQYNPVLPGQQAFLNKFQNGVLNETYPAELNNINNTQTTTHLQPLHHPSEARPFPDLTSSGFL
T1 sequence (P08238 whole entry partner): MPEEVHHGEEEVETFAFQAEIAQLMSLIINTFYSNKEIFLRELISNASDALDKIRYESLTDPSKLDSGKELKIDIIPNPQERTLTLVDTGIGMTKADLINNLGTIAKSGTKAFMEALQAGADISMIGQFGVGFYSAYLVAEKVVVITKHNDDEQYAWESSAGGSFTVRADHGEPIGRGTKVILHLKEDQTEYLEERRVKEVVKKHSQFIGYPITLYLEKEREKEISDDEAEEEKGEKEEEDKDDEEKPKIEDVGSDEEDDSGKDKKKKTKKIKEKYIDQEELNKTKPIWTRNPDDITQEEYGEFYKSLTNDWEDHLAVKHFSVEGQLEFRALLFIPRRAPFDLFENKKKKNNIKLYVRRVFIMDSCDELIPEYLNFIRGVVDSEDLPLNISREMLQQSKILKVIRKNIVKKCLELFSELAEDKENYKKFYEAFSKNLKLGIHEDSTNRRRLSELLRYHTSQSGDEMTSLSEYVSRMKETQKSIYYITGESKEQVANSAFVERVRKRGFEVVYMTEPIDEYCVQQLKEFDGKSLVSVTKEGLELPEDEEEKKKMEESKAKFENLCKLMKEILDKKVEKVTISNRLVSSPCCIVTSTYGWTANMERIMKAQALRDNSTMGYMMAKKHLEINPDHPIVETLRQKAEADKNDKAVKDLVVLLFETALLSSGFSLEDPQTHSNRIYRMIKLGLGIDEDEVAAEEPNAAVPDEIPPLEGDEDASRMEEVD
T1 sequence (O00170 whole entry partner): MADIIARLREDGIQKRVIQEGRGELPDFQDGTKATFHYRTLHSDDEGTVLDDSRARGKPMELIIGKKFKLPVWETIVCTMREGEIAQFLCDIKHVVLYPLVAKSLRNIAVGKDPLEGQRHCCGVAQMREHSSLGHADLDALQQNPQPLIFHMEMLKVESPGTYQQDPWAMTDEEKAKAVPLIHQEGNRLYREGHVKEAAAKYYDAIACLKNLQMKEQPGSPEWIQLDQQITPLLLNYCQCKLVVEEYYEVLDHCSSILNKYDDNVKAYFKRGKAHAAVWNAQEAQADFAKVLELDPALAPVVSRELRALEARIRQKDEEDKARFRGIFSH

AhR degradation in reporter system: pronounced AhR degradation
Compound: Cc1[nH]c2ccccc2c1-c1c2[nH]c3ccccc3c2cc2[nH]c3ccccc3c12 [5e]
